Reference: patent publication US12729377B2, “RNAi agents and compositions for inhibiting expression of angiopoietin-like 3 (ANGPTL3), and methods of use” (Arrowhead Pharmaceuticals, Inc., priority 2017, dated 2026)
In the oligonucleotide strings, read from the 5' end, every base follows the letter of its sugar. An asterisk marks phosphorothioate; unmarked linkages are phosphodiester. Other units and linkages are bracketed, terminal groups are in braces. A string of capitals states the bases alone. {NAG37} = tridentate N-acetyl-galactosamine targeting ligand, structure (NAG37)s; [invAb] = inverted abasic unit; m = 2'-O-methyl; f = 2'-fluoro

How the values were obtained:
ANGPTL3 gene [1] = assay: Example 9: serum HDL in cynomolgus monkeys; assay type: in vivo, cynomolgus macaque (Macaca fascicularis); conditions: 2.0 mg/kg single SC injection day 1, cynos, n=3
Protocol: Additional ANGPTL3 RNAi agents were evaluated in cynomolgus monkeys. On day 1, cynomolgus macaque (Macaca fascicularis) primates (also referred to herein as “cynos”) were administered a single subcutaneous injection of 0.3 mL/kg (approximately 2-3 mL volume, depending on animal mass) containing 2.0 mg/kg of an ANGPTL3 RNAi agent, which included either AD05488, AD05743, AD05775, or AD05841, each formulated in saline. […] ANGPTL3 RNAi agents AD05488, AD05743, and AD05775 included nucleotide sequences designed to target position 304 of the ANGPTL3 gene. ANGPTL3 RNAi agent AD05841 included nucleotide sequences designed to target position 1035 of the ANGPTL3 gene.
Three (3) cynos in each group were tested (n=3). Blood samples were drawn and serum samples were analyzed on days −14 (predose), −7 (predose), 1 (pre-dose), 8, 15, 22, 29, and 35. Cynos were fasted overnight prior to each collection. ANGPTL3 protein levels in serum were measured by ELISA assay (R&D Systems), according to the manufacturer's recommendations. Triglycerides, total cholesterol, high-density lipoprotein (HDL), and low-density lipoprotein (LDL) in serum were measured on a Cobas® Integra 400 (Roche Diagnostics), according to the manufacturer's recommendations.
The ANGPTL3 protein levels, triglyceride levels, total cholesterol levels, HDL levels, and LDL levels for each animal were normalized. For normalization, the level of ANGPTL3 protein, triglyceride, HDL, and total cholesterol, respectively, for each animal at a time point, was divided by the average pre-treatment level of expression in that animal (in this case at days −14, −7, and 1) to determine the ratio of expression “normalized to pre-treatment.”

ANGPTL3 gene [2] = assay: Example 14: RNAi agent and statin, serum LDL in LDLR knockout mice; assay type: in vivo, LDLR KO mice
Excerpt: To evaluate the effect of co-administration of RNAi agents and statins in a disease model, LDLR KO mice were commercially obtained (The Jackson Laboratory). For three weeks prior to the onset of the study, forty-one (41) male 7 to 8 week old LDLR KO mice were placed on a high fat (“western”) diet (Teklad Custom Diets TD.88137), and remained on that diet throughout the duration of the study. Pre-dose serum samples were taken on study Day 1 after a four hour fast. The dosing regimen for the study is recited in the following Table 72:
• Mice were treated at 40 mg/kg for the first 11 days, then switched to 20 mg/kg thereafter.
The vehicle used for the oral gavage in the study was a 1:1 mixture of Ora-Plus®: Ora-Sweet® solution, which were acquired commercially. For the preparation of the atorvastatin oral gavage administrations, the respective desired dose of atorvastatin was first dissolved in sterile water (0.3 mL water per 1 mL of desired formulation) and vortexed until smooth, followed by the addition of a mixture of 1:1 Ora-Plus®: Ora-Sweet® solution (0.7 mL vehicle per 1 mL of desired formulation) and vortexed. On day 1 and for each day thereafter an oral gavage dose was administered for each of the Groups except for Group 2. On Day 23, Groups 1, 2, 3, and 4 received a single subcutaneous administration of 2.5 mg/kg dose ([…] solution) of an ANGPTL3 RNAi agent in D5W (dextrose in 5% water), or vehicle control (D5W) with no RNAi agent.
The RNAi agent tested (AD05488) included a modified sequence and an N-acetyl-galactosamine-containing targeting ligand conjugated to the 5′ terminal end of the sense strand. (See Tables 3, 4, and 5 for modified sequences and targeting ligand structures). The injections were performed between the skin and muscle (i.e. subcutaneous injections) into the loose skin over the neck and shoulder area. Serum was collected on days 8, 15, 22 (pre-RNAi agent injection), 29, 36, 43, and 50. LDLR KO mice were fasted for four hours prior to each collection.
ANGPTL3 protein levels in serum were measured by ELISA assay (R&D Systems), according to the manufacturer's recommendations. Among other biomarkers, triglycerides, total cholesterol, and low-density lipoprotein (LDL) in serum were measured on a Cobas® Integra 400 (Roche Diagnostics), according to the manufacturer's recommendations.
The ANGPTL3 protein levels, triglyceride levels, total cholesterol levels, HDL levels, and LDL levels for each animal were normalized. For normalization, respective levels of ANGPTL3 protein, TG, total cholesterol, or LDL for each animal at a time point was divided by the pre-treatment level of expression in that animal (in this case pre-dose levels on Day 1) to determine the ratio of expression “normalized to pre-treatment.” Data from the study set forth in this Example are shown in the following Tables 73-76: […]

## AD05488: RNAi agent duplex: antisense AM07235-AS, sense AM07234-SS (antisense mU*fA*mC*fUmGfAmUfCmAfAmAfUmAfUmGfUmUfGmAfG*mC; sense {NAG37}*[invAb]*mGmCmUmCmAmAmCmAfUfAfUmUmUmGmAmUmCmAmGmUmA*[invAb])
ANGPTL3 gene [1]; Day 8
  Average HDL Normalized to Pre-Treatment: 0.985
ANGPTL3 gene [1]; Day 15
  Average HDL Normalized to Pre-Treatment: 0.911
ANGPTL3 gene [1]; Day 22
  Average HDL Normalized to Pre-Treatment: 0.849
ANGPTL3 gene [1]; Day 29
  Average HDL Normalized to Pre-Treatment: 0.856
ANGPTL3 gene [1]; Day 35
  Average HDL Normalized to Pre-Treatment: 0.810
ANGPTL3 gene [2]; Group 2: no gavage, 2.5 mg/kg AD05488 SC on day 23, Day 8 (pre-RNAi agent injection)
  Avg LDL normalized to pre-treatment: 0.893
ANGPTL3 gene [2]; Group 2: no gavage, 2.5 mg/kg AD05488 SC on day 23, Day 15 (pre-RNAi agent injection)
  Avg LDL normalized to pre-treatment: 1.051
ANGPTL3 gene [2]; Group 2: no gavage, 2.5 mg/kg AD05488 SC on day 23, Day 22 (pre-RNAi agent injection)
  Avg LDL normalized to pre-treatment: 1.113
ANGPTL3 gene [2]; Group 2: no gavage, 2.5 mg/kg AD05488 SC on day 23, Day 29
  Avg LDL normalized to pre-treatment: 0.653
ANGPTL3 gene [2]; Group 2: no gavage, 2.5 mg/kg AD05488 SC on day 23, Day 36
  Avg LDL normalized to pre-treatment: 0.492
ANGPTL3 gene [2]; Group 2: no gavage, 2.5 mg/kg AD05488 SC on day 23, Day 43
  Avg LDL normalized to pre-treatment: 0.443
ANGPTL3 gene [2]; Group 2: no gavage, 2.5 mg/kg AD05488 SC on day 23, Day 50
  Avg LDL normalized to pre-treatment: 0.480
ANGPTL3 gene [2]; Group 3: 10 mg/kg daily oral gavage atorvastatin, 2.5 mg/kg AD05488 on day 23, Day 8 (pre-RNAi agent injection)
  Avg LDL normalized to pre-treatment: 0.692
ANGPTL3 gene [2]; Group 3: 10 mg/kg daily oral gavage atorvastatin, 2.5 mg/kg AD05488 on day 23, Day 15 (pre-RNAi agent injection)
  Avg LDL normalized to pre-treatment: 0.537
ANGPTL3 gene [2]; Group 3: 10 mg/kg daily oral gavage atorvastatin, 2.5 mg/kg AD05488 on day 23, Day 22 (pre-RNAi agent injection)
  Avg LDL normalized to pre-treatment: 0.659
ANGPTL3 gene [2]; Group 3: 10 mg/kg daily oral gavage atorvastatin, 2.5 mg/kg AD05488 on day 23, Day 29
  Avg LDL normalized to pre-treatment: 0.422
ANGPTL3 gene [2]; Group 3: 10 mg/kg daily oral gavage atorvastatin, 2.5 mg/kg AD05488 on day 23, Day 36
  Avg LDL normalized to pre-treatment: 0.312
ANGPTL3 gene [2]; Group 3: 10 mg/kg daily oral gavage atorvastatin, 2.5 mg/kg AD05488 on day 23, Day 43
  Avg LDL normalized to pre-treatment: 0.264
ANGPTL3 gene [2]; Group 3: 10 mg/kg daily oral gavage atorvastatin, 2.5 mg/kg AD05488 on day 23, Day 50
  Avg LDL normalized to pre-treatment: 0.256
ANGPTL3 gene [2]; Group 4: 20 mg/kg* daily oral gavage atorvastatin (40 mg/kg first 11 days), 2.5 mg/kg AD05488 on day 23, Day 8 (pre-RNAi agent injection)
  Avg LDL normalized to pre-treatment: 0.572
ANGPTL3 gene [2]; Group 4: 20 mg/kg* daily oral gavage atorvastatin (40 mg/kg first 11 days), 2.5 mg/kg AD05488 on day 23, Day 15 (pre-RNAi agent injection)
  Avg LDL normalized to pre-treatment: 0.515
ANGPTL3 gene [2]; Group 4: 20 mg/kg* daily oral gavage atorvastatin (40 mg/kg first 11 days), 2.5 mg/kg AD05488 on day 23, Day 22 (pre-RNAi agent injection)
  Avg LDL normalized to pre-treatment: 0.755
ANGPTL3 gene [2]; Group 4: 20 mg/kg* daily oral gavage atorvastatin (40 mg/kg first 11 days), 2.5 mg/kg AD05488 on day 23, Day 29
  Avg LDL normalized to pre-treatment: 0.434
ANGPTL3 gene [2]; Group 4: 20 mg/kg* daily oral gavage atorvastatin (40 mg/kg first 11 days), 2.5 mg/kg AD05488 on day 23, Day 36
  Avg LDL normalized to pre-treatment: 0.240
ANGPTL3 gene [2]; Group 4: 20 mg/kg* daily oral gavage atorvastatin (40 mg/kg first 11 days), 2.5 mg/kg AD05488 on day 23, Day 43
  Avg LDL normalized to pre-treatment: 0.217
ANGPTL3 gene [2]; Group 4: 20 mg/kg* daily oral gavage atorvastatin (40 mg/kg first 11 days), 2.5 mg/kg AD05488 on day 23, Day 50
  Avg LDL normalized to pre-treatment: 0.242
ANGPTL3 gene [2]; co-administration of atorvastatin and RNAi agent (Groups 3 and 4), LDLR KO mice on high fat diet
  total reductions in LDL: ~ 80%
